# Results taken from US12686809B2, “Methods and formulations for treating oil-containing porous media for oil recovery” (UNIVERSITY OF WYOMING, priority 2020, dated 2026).
# Experiments:
# Format in all cases: physicochemical
# [1] = Density difference between surfactant solution and crude oil; settings: ~0.1 wt % in blank brine vs reservoir crude oil; ambient conditions
# Procedure: Density: The density of the two phases (oil and brine; or oil and surfactant solution) was measured at atmospheric pressure and 22° C. using a DMA45 density meter from Anton Paar. The density of the two phases was also measured at reservoir conditions (120° C., 6000 psi) using an in-line density meter (DMA HPM, Anton Paar).
# (§1) Measurement of the IFT between surfactant solutions/reservoir oil at ambient conditions were first performed to, e.g., examine the impact of the hydrophobic chain length on the interfacial properties of cationic surfactants. For these measurements, a KRÜSS Spinning Drop Tensiometer was used.
# [2] = IFT between surfactant solutions and reservoir crude oil at ambient conditions (spinning drop); settings: ~0.1 wt % in blank brine
# Procedure: Spinning drop method: The spinning drop method was utilized to measure ultra-low IFT values. The instrumentation included a KRÜSS Spinning Drop Tensiometer was employed and the spinning drop method was performed as follows. A crude oil droplet was launched from a capillary plug into a capillary tube filled with the surfactant solution. While the glass capillary tube was rotating, the software-controlled instrument measured the IFT between oil and brine by analyzing the drop shape which depends on the balance between interfacial and centrifugal forces. At low rotational speeds, the IFT is the dominating force and the droplet is spherical in shape. In this case the software uses Young-Laplace equation to calculate IFT. When the angular velocity is high, the droplet is elongated (length is at least 4 times the diameter) and Vonnegut's equation is used to calculate the IFT.
# as §1
# [3] = Critical micelle concentration by surface tension (pendant drop) at ambient conditions; settings: surface tension against air
# Procedure: Pendant drop method: The pendant drop method was mainly utilized when the density of the suspended phase is higher than that of the bulk phase. The same device as that used in the captive/rising bubble method is used for the pendant drop method. The method consists of a drop suspended from a needle to determine interfacial and surface tension of liquid/liquid and liquid/gas systems. The critical micelle concentration (CMC) of cationic surfactants was measured using surface tension measurements between the surfactant solutions and air at ambient conditions. […] Therefore, generally, the measurements were performed at a concentration above CMC (about 0.1 wt %), which is the one typically used in the field.
# CMC measurements were performed to, e.g., investigate the effect of the hydrophobic chain length on the behavior of cationic surfactant molecules at the interface. […] As a baseline, the surface tension of blank brine was measured to be about 75.4 mN/m.
# FIGS. 18A-18C show exemplary data for CMC measurements of surfactants with chloride heads and various alkyl chain lengths and depicting the variations of surface tension with concentration. Specifically, FIGS. 18A, 18B, and 18C show exemplary surface tension data for DTAC, CTAC, and TSAC.
# [4] = Microemulsion phase behavior of surfactant solution/crude oil; settings: for phase behavior (in words): about 0.1 wt % in blank brine/crude oil 1:1, about 80° C. versus ambient; for volume of surfactant phase formed between oil and brine: about 80° C.
# Procedure: Microemulsion phase behavior: The microemulsion phase behavior of surfactants with different structures was investigated with respect to temperature. The effect of surfactant hydrophobic chain length on phase behavior was examined at ambient temperature (about 22° C.) and at elevated temperature (about 80° C.). For these experiments, glass pipettes were filled with brine/crude oil at a ratio of about 1:1 or surfactant solution/crude oil at a ratio of about 1:1. The pipettes were then sealed with a torch and shaken at the speed of about 250 rpm for about 24 hours (h). The pipettes were then monitored for several days and images were recorded.
# Microemulsion phase behavior tests can generally be utilized to characterize surfactant stability. The phase behavior of surfactants can depend on distinct parameters such as temperature, surfactant concentration, and/or brine salinity. The effect of temperature on phase behavior was systematically investigated for various surfactants. Here, the phase behavior test was first performed on a pipette containing blank brine and the crude oil.
# FIG. 13 is a series of exemplary images showing the phase behavior of cationic surfactants with a chloride head—TOAC, DTAC, CTAC, and TSAC—at ambient temperatures (left panel) and at about 80° C. (right panel). FIG. 14 is each a series of exemplary images showing the phase behavior of cationic surfactants with a bromide head—TOAB, DTAB, CTAB, and TODAB—at ambient temperatures (left panel) and at about 80° C. (right panel). For these tests, each surfactant was made into a surfactant solution (about 0.1 wt % in blank brine).
# [5] = Krafft and cloud point temperatures / solution cloudiness at ambient conditions; settings: about 0.1 wt % in blank brine; for solution clarity/cloudiness (in words): about 22° C., ambient conditions
# Procedure: Krafft and cloud point temperatures at ambient conditions: At ambient conditions, the Krafft point and cloud point temperatures were determined as follows. Fresh brine solutions containing about 0.1 wt % of surfactant solution were prepared and poured into 25 ml glass vials. The vials were capped and placed upright in a water bath and/or heater at an initial temperature of about 22° C. […] For each increment, it typically took at least 20 minutes for the brine to reach thermal equilibrium (temperature stabilization) with the water bath. The cloud and Krafft points were determined visually by recording the temperatures at which cloudiness was observed or disappeared. Images of the brine solutions were captured after each temperature stabilization.
# The effect of the hydrophobic (alkyl) chain length on the stability and aqueous solubility/cloudiness of cationic surfactants was examined by measuring Krafft points at elevated pressure and temperature were performed. FIG. 15 is a series of exemplary images of solutions of cationic surfactants having a bromide head with increasing carbon atom numbers from left to right—DTAB (left panel), CTAB (center panel), and TODAB (right panel). For these tests, each surfactant was made into a surfactant solution (about 0.1 wt % in blank brine). The images were captured at about 22° C.
# (left panel) and about 75° C. (right panel).
# (§2) The cloud points of certain nonionic surfactants were measured at high pressure (about 6,000 psi) and temperature. […] (center panel) and about 99.9° C. (right panel), at a pressure of about 6,000 psi.
# [6] = IFT between surfactant solutions and reservoir oil at reservoir conditions; settings: about 100° C. and about 1,000 psi
# Procedure: Captive/rising bubble method: The captive/rising bubble method was utilized to measure the dynamic IFT and contact angle at reservoir conditions. This method was performed as follows. The lighter phase was injected through a needle to form a bubble inside the heavier phase. The IFT between the two phases was calculated from the shape of the bubble using the Young-Laplace equation through Axisymmetric Drop Shape Analysis (ADSA). The state-of-the-art interfacial tension and contact angle (IFT/CA) apparatus adopted for the measurements is described and used by S. Saraji et al., Wettability of Supercritical Carbon Dioxide/Water/Quartz Systems: Simultaneous Measurement of Contact Angle and Interfacial Tension at Reservoir Conditions, Langmuir, 29 (2013) 6856-6866. This experimental setup can operate at elevated temperature (up to 200° C.) and pressure (up to 8000 psi). […] For contact angle measurement, a droplet was injected from the needle onto the solid substrate and monitored by capturing several images with time and analyzing them using ImageJ software.
# Pendant drop method: The pendant drop method was mainly utilized when the density of the suspended phase is higher than that of the bulk phase. […] The critical micelle concentration (CMC) of cationic surfactants was measured using surface tension measurements between the surfactant solutions and air at ambient conditions. […]
# [7] = Krafft and cloud point temperatures at reservoir conditions (IFT cell, 6,000 psi); settings: about 0.1 wt % in blank brine; about 6,000 psi
# Procedure: as §2
# (right panel), at a pressure of about 6,000 psi.
phase behavior (in words) [4],volume of surfactant phase formed between oil and brine [4],solution clarity/cloudiness (in words) [5],IFT reduction relative to the blank brine [6],"temperature at which the solution became and stayed clear ([5]; heated while stirring, ambient pressure)",Krafft point [7],Structure (SMILES),Δρ (change in density) [1],γ (interfacial tension surfactant solution/reservoir oil) [2],CMC [3]
–,–,–,–,–,–,"CCCCCCCCCCCC[N+](C)(C)C.[Cl-] [DTAC, Dodecyltrimethylammonium chloride]",0.3826 g/mL,1.6 mN/m,about 0.005 wt %
poor solubility,about 0.1 cm^3,–,–,–,–,"CCCCCCCCCCCCCCCCCC[N+](C)(C)C.[Br-] [TODAB, Trimethyloctadecylammonium bromide]",0.3831 g/mL,0.07 mN/m,–
–,–,–,–,–,–,"CCCCCCCCCCCCCCCC[N+](C)(C)C.[Cl-] [CTAC, Cetyltrimethyl ammonium chloride]",0.3834 g/mL,0.11 mN/m,about 0.003 wt %
–,–,–,–,–,–,"CCCCCCCCCCCC[N+](C)(C)C.[Br-] [DTAB, Dodecyltrimethylammonium bromide]",0.3835 g/mL,1.1 mN/m,–
less influenced by temperature,–,already clear at ambient conditions,about 7 mN/m,–,–,"CCCCCCCC[N+](C)(C)C.[Br-] [TOAB, Trimethyloctylammonium bromide]",0.3823 g/mL,8.4 mN/m,–
less influenced by temperature,–,clearest,–,–,–,"CCCCCCCC[N+](C)(C)C.[Cl-] [TOAC, Trimethyloctylammonium chloride]",0.3822 g/mL,5.05 mN/m,–
poor solubility,about 0.1 cm^3,cloudiest,–,about 75 °C,about 40 °C,"CCCCCCCCCCCCCCCCCC[N+](C)(C)C.[Cl-] [TSAC, Trimethyloctadecylammonium chloride]",0.3829 g/mL,–,about 0.001 wt %
–,–,–,–,–,–,"CCCCCCCCCCCCCCCC[N+](C)(C)C.[Br-] [CTAB, Hexadecyltrimethylammonium bromide]",0.382 g/mL,0.15 mN/m,–
